We go through three molecules from article PMC9077470 (RSC Advances, 2018).

Series [1] can be described thus: In vitro incubation with small intestine contents of rats. As to conditions: rat small intestine contents homogenate, pH 6.8, 37 °C, after 4 h of incubation. In kind it is in vitro ADME. As to the method: (§1) After anesthetized with diethyl ether, rats were sacrificed and their contents of stomach and small intestine were collected and homogenized respectively, the homogenate was diluted with buffer solution (pH 1.2 for stomach contents, pH 6.8 for small intestine contents) to 20% (w/v). […] After 0.25, 0.5, 1.0, 1.5, 2.0, 3.0 and 4.0 h of incubation, 200 μL of samples were collected and replaced with the same volume of blank homogenate, then samples were centrifuged at 13 000 rpm for 5 min, filtered with membrane filter, and analyzed by HPLC. The residual contents of each prodrug in homogenate were calculated and the hydrolysis curves were drawn.

The test system of series [2] is MPO activity in colonic tissues. Put plainly: TNBS-induced colitis: MPO activity in colonic tissues. It counts as in vivo, mice. To be noted: for MPO activity in colonic tissues: vs TNBS group, p < 0.01; for MPO activity, compared with positive control: vs positive control. The protocol: Colitis was induced according to the previous study.[18,19] Briefly, after 12 h of fasting, mice were anesthetized with intraperitoneal pentobarbital sodium (35 mg kg^-1) before the induction of colitis. 0.1 mL of 50% (v/v) ethanol contained 2.5% (v/v) TNBS was instilled into the colon 3.5-4 cm from the anus by a gavage needle. The mice were kept in a head-down position for 30 s to prevent leakage of the intracolonic instillation. Mice in the control group received normal saline instead of TNBS solution, a physical mixture of 5-ASA and sodium butyrate was used as the positive control. […] The treatments were given once daily for 5 continuous days starting 24 hours after the induction of colitis. […] Samples were freeze-thawed three times, after which sonication was repeated. Homogenates were then centrifuged at 13 000 rpm for 30 min and MPO was extracted from the resulting supernatant.[25] MPO activity was measured by the assay kit according to its provider's instructions.

Series [3] can be described thus: In vitro incubation with stomach contents of rats. To be noted: rat stomach contents homogenate, pH 1.2, 37 °C, after 2 h of incubation. In kind it is in vitro ADME. As to the method: as §1
The subject of series [4] is SOD, MDA, GSH, GSH-Px in colonic tissues. In words: TNBS-induced colitis: levels of SOD, MDA, GSH and GSH-Px in colonic tissues. In kind it is in vivo, mice. As to conditions: for GSH-Px activities in the colon / MDA levels in the colon / SOD activities in the colon / levels of GSH in the colon: vs TNBS group; for GSH-Px activities in the colon / MDA levels in the colon / SOD activities in the colon / levels of GSH in the colon / effect on decreasing the MDA level, compared with positive control: p < 0.01; for effect on increasing GSH, compared with positive control / effect on increasing GSH-Px, compared with positive control / effect on increasing SOD, compared with positive control / effect on decreasing the MDA level, compared with positive control: vs positive control. The protocol:
Colitis was induced according to the previous study.[18,19] Briefly, after 12 h of fasting, mice were anesthetized with intraperitoneal pentobarbital sodium (35 mg kg^-1) before the induction of colitis. 0.1 mL of 50% (v/v) ethanol contained 2.5% (v/v) TNBS was instilled into the colon 3.5-4 cm from the anus by a gavage needle. The mice were kept in a head-down position for 30 s to prevent leakage of the intracolonic instillation. Mice in the control group received normal saline instead of TNBS solution, a physical mixture of 5-ASA and sodium butyrate was used as the positive control. […] The treatments were given once daily for 5 continuous days starting 24 hours after the induction of colitis. Colon tissue samples were homogenized with normal saline, the homogenate (10%, w/w) was centrifuged at 13 000 rpm for 15 min, and the resulting supernatant was diluted to 1% (w/w) for further assay. The protein levels of the colon homogenate were detected by a BCA protein assay kit. Then the activities of SOD and GSH-Px, and the levels of MDA and GSH of samples in each group were measured by the assay kits according to the provider's instructions.

For series [5], the system named is TNBS-induced experimental colitis. In words: TNBS-induced colitis: disease activity index (DAI). In kind it is in vivo, mice. As to conditions: for DAI, compared with positive control: vs positive control (5-ASA + sodium butyrate). As to the method:
Colitis was induced according to the previous study.[18,19] Briefly, after 12 h of fasting, mice were anesthetized with intraperitoneal pentobarbital sodium (35 mg kg^-1) before the induction of colitis. 0.1 mL of 50% (v/v) ethanol contained 2.5% (v/v) TNBS was instilled into the colon 3.5-4 cm from the anus by a gavage needle. The mice were kept in a head-down position for 30 s to prevent leakage of the intracolonic instillation. Mice in the control group received normal saline instead of TNBS solution, a physical mixture of 5-ASA and sodium butyrate was used as the positive control. […] The treatments were given once daily for 5 continuous days starting 24 hours after the induction of colitis. DAI is ranged from 0 to 4 and it is the sum of scores given for body weight loss, stool consistency and presence or absence of fecal blood. The fecal occult blood of mice was evaluated by the ο-tolidine method.[22] A small amount of feces samples were smeared on a white plate. 2-3 drops of ο-tolidine solution (10 g L^-1, dissolved in acetic acid) were added into samples and mixed evenly. Then 2-3 drops of 3% H2O2 solution were added into the mixture, meanwhile, start the time and observe immediately. Scored as: normal, weak positive, green to light green developing over 2 min; +, positive, greenish-blue to deep green developing within 1 min; ++, positive, blue to bluish-green developing within 5-20 s; +++, very strong positive, intense blue color developing immediately.[23]

For series [6] the test system is unchanged. Put plainly: TNBS-induced colitis: colon index and colonic damage score (CDS). In kind it is in vivo, mice. To be noted: for colon index, compared with positive control: vs positive control (5-ASDB p < 0.05, Ols-DBP p < 0.01); for CDS, compared with positive control: vs positive control, p < 0.05. The protocol:
Colitis was induced according to the previous study.[18,19] Briefly, after 12 h of fasting, mice were anesthetized with intraperitoneal pentobarbital sodium (35 mg kg^-1) before the induction of colitis. 0.1 mL of 50% (v/v) ethanol contained 2.5% (v/v) TNBS was instilled into the colon 3.5-4 cm from the anus by a gavage needle. The mice were kept in a head-down position for 30 s to prevent leakage of the intracolonic instillation. Mice in the control group received normal saline instead of TNBS solution, a physical mixture of 5-ASA and sodium butyrate was used as the positive control. […] The treatments were given once daily for 5 continuous days starting 24 hours after the induction of colitis. At the end of the experiment, all mice were sacrificed and their entire colons were excised, opened longitudinally and washed carefully with normal saline. After dried with filter papers, colons were weighted and the length of colons was measured and recorded. The colon index was calculated as follows:Colon index (g dm^-1) = weight of colon/length of colon The colonic damage score (CDS) of mice in each group was evaluated according to the following criteria: 0, no ulcer and colitis; 1, no ulcer, local congestion; 2, ulcers, no local congestion; 3, ulcer and colitis at only one site; 4, ulcer and colitis at more than one sites; 5, over 2 cm of ulcer surface.[24]

A short description of series [7]: In vivo incubation in the colon of rats. As to conditions: injected into tied rat colon, 6 h. As to the method:
6 hours later, rats were sacrificed and their colon contents were separated and homogenized in 40 mL of phosphate buffer (pH 7.4). The homogenate was sonicated for 5 min and centrifuged at 13 000 rpm for 5 min, then 0.2 mL of the supernatant was collected and mixed with 0.8 mL of methanol. Finally, samples were centrifuged, filtered and analyzed by HPLC. The residual contents of each prodrug in colon contents were calculated, and the hydrolysis ratio was calculated by the following equation: [drawing 2] where Wr is the residual amount of prodrugs in the colon contents and Wi is the initial amount of prodrugs that administered to rats.

Regarding `CCCC(=O)OCC(COC(=O)CCC)OC(=O)c1cc(N=Nc2ccc(O)c(C(=O)OC(COC(=O)CCC)COC(=O)CCC)c2)ccc1O` [Ols-DBP], the “residual content of prodrug in small intestine contents” value in series [1] stood at 90.4%. For the same molecule, in series [2], the “MPO activity in colonic tissues” value is on record as “significantly decreased” and the “MPO activity, compared with positive control” value is given as “significantly better than the positive control”. Besides, the “residual content of prodrug in stomach contents” value in series [3] was 57.5%. Further, in series [4], the “GSH-Px activities in the colon” value is recorded as “increased”, the “MDA levels in the colon” value was “significantly decreased”, the “SOD activities in the colon” value is “increased” and the “levels of GSH in the colon” value was “significantly higher”. Further, in series [4], the “effect on increasing GSH, compared with positive control” value is “significantly greater effects”; the “effect on increasing GSH-Px, compared with positive control” value is “significantly greater effects”; the “effect on increasing SOD, compared with positive control” value is given as “significantly greater effects”; the “effect on decreasing the MDA level, compared with positive control” value was “significantly greater effects”. The “DAI, compared with positive control” value in series [5] is “better effects than the positive control”. Moreover, in series [6], the “colon index, compared with positive control” value is recorded as “significantly better than the positive control” and the “CDS, compared with positive control” value is listed as “significantly greater than the positive control”. Further, the “hydrolysis ratio after in vivo incubation in rat colons” value (shortened to “hydrolysis ratio”) in series [7] is listed as “almost hydrolyzed completely”.

As to `CCCC(=O)Oc1ccc(N=Nc2ccc(OC(=O)CCC)c(C(=O)O)c2)cc1C(=O)O` [Ols-DB, 3,3′-azobis(6-hydroxybenzoicacid)dibutyrate], in series [1], the “residual content of prodrug in small intestine contents” value is reported as 5.5%. Besides, in series [2], the “MPO activity in colonic tissues” value is “significantly decreased” and the “MPO activity, compared with positive control” value is “significantly better than the positive control”. Moreover, in series [3], the “residual content of prodrug in stomach contents” value was “almost completely decomposed”. For the same molecule, in series [4], the “GSH-Px activities in the colon” value is listed as “increased”, the “MDA levels in the colon” value is recorded as “significantly decreased”, the “SOD activities in the colon” value was “increased” and the “levels of GSH in the colon” value is reported as “significantly higher”. The DAI result in series [5] (TNBS colitis mice, once daily 5 days, equivalent to 100 mg kg^−1 5-ASA, course after treatment) is reported as “most significant effects in the first 4 days”. Further, the “DAI, compared with positive control” value in series [5] is given as “better effects than the positive control”. The “CDS, compared with positive control” value in series [6] is listed as “significantly greater than the positive control”. Further, the “hydrolysis ratio” value in series [7] is on record as “almost hydrolyzed completely”.

Consider `CCCC(=O)OCC(COC(=O)CCC)OC(=O)c1cc(N)ccc1O` [5-ASDB, 2-(1,3-dibutyroxypropyl)-5-aminosalicylate], for which, in series [1], the “residual content of prodrug in small intestine contents” value stood at 94.7%. Also, in series [2], the “MPO activity in colonic tissues” value is “significantly decreased” and the “MPO activity, compared with positive control” value is “significantly better than the positive control”. Also, the “residual content of prodrug in stomach contents” value in series [3] worked out at 63.3%. Further, in series [4], the “GSH-Px activities in the colon” value is “increased”, the “MDA levels in the colon” value is listed as “significantly decreased”, the “SOD activities in the colon” value is given as “increased” and the “levels of GSH in the colon” value is listed as “significantly higher”. Further, in series [4], the “effect on increasing GSH, compared with positive control” value is “significantly greater effects”; the “effect on increasing GSH-Px, compared with positive control” value is “significantly greater effects”; the “effect on increasing SOD, compared with positive control” value is on record as “significantly greater effects”; the “effect on decreasing the MDA level, compared with positive control” value is recorded as “significantly greater effects”. Further, the “DAI, compared with positive control” value in series [5] was “better effects than the positive control”. Also, in series [6], the “colon index, compared with positive control” value is given as “significantly better than the positive control” and the “CDS, compared with positive control” value was “significantly greater than the positive control”. In series [7], the “hydrolysis ratio” value is “almost hydrolyzed completely”.
